Reference: patent US20190343908A1, “Therapeutic Combination for the Treatment of Cancer” (Nerium Biotechnology Inc., priority 2011, published 2019)
“And” between values parts separate entries of the source, which are not always exact repeats. Equal values may be shown once.

Tests used:
[1] = test system: MCF-7 (human breast cancer); assay: Crystal Violet viability assay, MCF-7; format: cell-based; parameters: key: absorbance at 570 nm (second wavelength subtracted)
Source text: (§1) The Sulforhodamine B and Crystal Violet assays provide information about protein and were used to complement the Methyl-Tetrazolium dye assay. […] It is used for the quantification of cellular proteins of cultured cells. The assay using Crystal Violet, a dye that binds electrostatically to proteins and stains DNA, provides a reliable, simple assay for measuring viability of cells.
(§2) The Methyl Tetrazolium, Sulforhodamine B, and Crystal Violet assays were used to assess cell viabilities. The incubation times were 24 hours, 48 hours, and 72 hours. The Nerium oleander extract Anvirzel™ (a hot water extract of oleander obtained from Salud Integral, Honduras) was tested in concentrations ranging from 0.01 ng/mL to 10 ng/mL.
(§3) Cells were detached by trypsinization (Trypsin-0.25% EDTA, Invitrogen, 25200-072) during the logarithmic phase of culture growth and plated in 96-well plates (18.000 cells/well) (Corning, Costar 359) in a final volume of 200 μl of medium per well. […] The absorbance was measured after 24 hours, 48 hours, and 72 hours of incubation.
[…] Formalin was removed and 0.25% aqueous crystal violet (Sigma, HT901), dissolved in water, was added for 10 minutes at RT. Unbound Crystal Violet was rinsed by washing with water and finally 33% acetic acid was added to dissolve the dye.
(§4) The optical density of each plate was measured on a μQuant spectrophotometer and the data were analyzed with Gen5 software (μQuant Biomolecular Spectrophotometer MQX200 and Gen5™ Microplate Data Collection & Analysis software, BioTek® Instruments. Inc, April 2008). Absorbance was measured at 570 nm for all assays and a second wavelength was measured in order to subtract noise. For the Methyl-Tetrazolium assay this second wavelength was 630 nm and for the Sulforhodamine B and Crystal Violet assays it was 690 nm.

[2] = test system: 22Rv1 (human prostate cancer); assay: Sulforhodamine B (SRB) viability assay, 22Rv1; format: cell-based
Source text: (§5) Three different viability assays were chosen to complement each other and yielded results dependent on concentration and cell line: the Methyl Tetrazolium dye assay, the Sulforhodamine B fluorescent dye assay, and the Crystal Violet dye assay.
as §1, §2, §3
For the Sulforhodamine B assay, 96-well plates were fixed by 10% trichloroacetic acid (Fluka, 91228) and were incubated at 4° C. for 1 hour. Afterwards, plates were rinsed with water and cells were stained with 0.4% Sulforhodamine B (Sigma, 341738), dissolved in 1% acetic acid (Carlo Ebra, 401422) for 15 minutes at room temperature (RT). The unbound stain was washed twice with 1% acetic acid. Finally, 10 mM Tris Buffer pH 10.5 (Sigma, T6791) was added to dissolve the dye.
as §4

[3] = test system: COR-L 105 (non-small cell lung carcinoma); assay: Crystal Violet viability assay, COR-L 105; format: cell-based, human; parameters: key to CVE Average: absorbance at 570 nm (crystal violet), background wavelength subtracted; conditions: for CVE Average 24 h / CVE Average 48 h / CVE Average 72 h: COR-L 105, Run 3
Source text: as §5, §1, §2, §3
For the Crystal Violet assay, the medium was removed from the 96-well plates, the plates rinsed with PBS (Sigma, P3813) and then the cells were […] by the addition of 10% formalin (MERCK, 1.04003.2500) for 20 minutes at RT. Formalin was removed and 0.25% aqueous crystal violet (Sigma, HT901), dissolved in water, was added for 10 minutes at RT. Unbound Crystal Violet was rinsed by washing with water and finally 33% acetic acid was added to dissolve the dye.
as §4

For `N.N.[Cl][Pt][Cl]` [cisplatin], the “CVE Average” value ([1]; MCF-7, Run 2, 24 h, 0.1 μg/ml CDDP) was 0.71, the “CVE Average” value ([1]; MCF-7, Run 2, 24 h, 1 μg/ml CDDP) was 0.192 and the “CVE Average” value ([1]; MCF-7, Run 2, 24 h, 10 μg/ml CDDP) was 0.612. For the same compound, the “CVE Average” value ([1]; MCF-7, Run 2, 24 h, 100 μg/ml CDDP) was 0.288, the “CVE Average” value ([1]; MCF-7, Run 2, 48 h, 0.1 μg/ml CDDP) was 0.664 and the “CVE Average” value ([1]; MCF-7, Run 2, 48 h, 1 μg/ml CDDP) was 0.239. For the same compound, the “CVE Average” value ([1]; MCF-7, Run 2, 48 h, 10 μg/ml CDDP) was 0.24, the “CVE Average” value ([1]; MCF-7, Run 2, 48 h, 100 μg/ml CDDP) was 0.221 and the “CVE Average” value ([1]; MCF-7, Run 2, 72 h, 0.1 μg/ml CDDP) was 0.678. For the same compound, the “CVE Average” value ([1]; MCF-7, Run 2, 72 h, 1 μg/ml CDDP) was 0.151, the “CVE Average” value ([1]; MCF-7, Run 2, 72 h, 100 μg/ml CDDP) was 0.147 and the “CVE Average” value ([1]; MCF-7, Run 3, 24 h, 0.1 μg/ml CDDP) was 0.454. For the same compound, the “CVE Average” value ([1]; MCF-7, Run 3, 24 h, 1 μg/ml CDDP) was 0.183, the “CVE Average” value ([1]; MCF-7, Run 3, 24 h, 10 μg/ml CDDP) was 0.307 and the “CVE Average” value ([1]; MCF-7, Run 3, 48 h, 0.1 μg/ml CDDP) was 0.811. The “CVE Average” value ([1]; MCF-7, Run 3, 48 h, 1 μg/ml CDDP) was 0.871, the “CVE Average” value ([1]; MCF-7, Run 3, 48 h, 10 μg/ml CDDP) was 0.769 and the “CVE Average” value ([1]; MCF-7, Run 3, 48 h, 100 μg/ml CDDP) was 0.439. The “CVE Average” value ([1]; MCF-7, Run 3, 72 h, 0.1 μg/ml CDDP) was 1.312, the “CVE Average” value ([1]; MCF-7, Run 3, 72 h, 1 μg/ml CDDP) was 0.51 and the “CVE Average” value ([1]; MCF-7, Run 3, 72 h, 10 μg/ml CDDP) was 0.449. For the same compound, the “CVE Average” value ([1]; MCF-7, Run 3, 72 h, 100 μg/ml CDDP) was 0.253, the “CVE Average” value ([1]; MCF-7 Run 1, 24 h, 0.1 μg/ml CDDP) was 0.978 and the “CVE Average” value ([1]; MCF-7 Run 1, 24 h, 1 μg/ml CDDP) was 0.376. For the same compound, the “CVE Average” value ([1]; MCF-7 Run 1, 24 h, 10 μg/ml CDDP) was 0.468, the “CVE Average” value ([1]; MCF-7 Run 1, 24 h, 100 μg/ml CDDP) was 0.285 and the “CVE Average” value ([1]; MCF-7 Run 1, 48 h, 0.1 μg/ml CDDP) was 1.112. For the same compound, the “CVE Average” value ([1]; MCF-7 Run 1, 48 h, 10 μg/ml CDDP) was 0.303, the “CVE Average” value ([1]; MCF-7 Run 1, 48 h, 100 μg/ml CDDP) was 0.153 and the “CVE Average” value ([1]; MCF-7 Run 1, 72 h, 0.1 μg/ml CDDP) was 1.632. For the same compound, the “CVE Average” value ([1]; MCF-7 Run 1, 72 h, 1 μg/ml CDDP) was 0.325, the “CVE Average” value ([1]; MCF-7 Run 1, 72 h, 10 μg/ml CDDP) was 0.237 and the “CVE Average” value ([1]; MCF-7 Run 1, 72 h, 100 μg/ml CDDP) was 0.284. The “SRB 24 h Average” value ([2]; 22Rv1 Run 1, 0.1 μg/ml CDDP) was 1.847, the “SRB 48 h Average” value ([2]; 22Rv1 Run 1, 0.1 μg/ml CDDP) was 1.685 and the “SRB 72 h Average” value ([2]; 22Rv1 Run 1, 0.1 μg/ml CDDP) was 2.018. For the same compound, the “SRB 24 h Average” value ([2]; 22Rv1 Run 1, 1 μg/ml CDDP) was 1.943, the “SRB 48 h Average” value ([2]; 22Rv1 Run 1, 1 μg/ml CDDP) was 1.549 and the “SRB 72 h Average” value ([2]; 22Rv1 Run 1, 1 μg/ml CDDP) was 1.56. The “SRB 24 h Average” value ([2]; 22Rv1 Run 1, 10 μg/ml CDDP) was 1.744, the “SRB 48 h Average” value ([2]; 22Rv1 Run 1, 10 μg/ml CDDP) was 1.217 and the “SRB 72 h Average” value ([2]; 22Rv1 Run 1, 10 μg/ml CDDP) was 1.141. The “SRB 24 h Average” value ([2]; 22Rv1 Run 1, 100 μg/ml CDDP) was 1.878, the “SRB 48 h Average” value ([2]; 22Rv1 Run 1, 100 μg/ml CDDP) was 1.121 and the “SRB 72 h Average” value ([2]; 22Rv1 Run 1, 100 μg/ml CDDP) was 1.204. For the same compound, the “SRB 24 h Average” value ([2]; 22Rv1 Run 2, 0.1 μg/ml CDDP) was 1.727, the “SRB 48 h Average” value ([2]; 22Rv1 Run 2, 0.1 μg/ml CDDP) was 2.139 and the “SRB 72 h Average” value ([2]; 22Rv1 Run 2, 0.1 μg/ml CDDP) was 2.392. For the same compound, the “SRB 24 h Average” value ([2]; 22Rv1 Run 2, 1 μg/ml CDDP) was 1.647, the “SRB 48 h Average” value ([2]; 22Rv1 Run 2, 1 μg/ml CDDP) was 1.824 and the “SRB 72 h Average” value ([2]; 22Rv1 Run 2, 1 μg/ml CDDP) was 1.395. The “SRB 24 h Average” value ([2]; 22Rv1 Run 2, 10 μg/ml CDDP) was 1.49, the “SRB 48 h Average” value ([2]; 22Rv1 Run 2, 10 μg/ml CDDP) was 1.46 and the “SRB 72 h Average” value ([2]; 22Rv1 Run 2, 10 μg/ml CDDP) was 1.606. The “SRB 24 h Average” value ([2]; 22Rv1 Run 2, 100 μg/ml CDDP) was 1.495, the “SRB 48 h Average” value ([2]; 22Rv1 Run 2, 100 μg/ml CDDP) was 1.621 and the “SRB 72 h Average” value ([2]; 22Rv1 Run 2, 100 μg/ml CDDP) was 1.247. The “Average absorbance, SRB 24 h” value ([2]; 22Rv1 Run 3, 0.1 μg/ml CDDP) was 1.352 and 0.85, the “CVE Average 24 h” value ([3]; 0.1 μg/ml CDDP) was 0.388 and the “CVE Average 48 h” value ([3]; 0.1 μg/ml CDDP) was 0.709. For the same compound, the “CVE Average 72 h” value ([3]; 0.1 μg/ml CDDP) was 0.457, the “CVE Average 24 h” value ([3]; 1 μg/ml CDDP) was 0.363 and the “CVE Average 48 h” value ([3]; 1 μg/ml CDDP) was 0.517. For the same compound, the “CVE Average 72 h” value ([3]; 1 μg/ml CDDP) was 0.263, the “CVE Average 24 h” value ([3]; 10 μg/ml CDDP) was 0.358 and the “CVE Average 48 h” value ([3]; 10 μg/ml CDDP) was 0.653. The “CVE Average 72 h” value ([3]; 10 μg/ml CDDP) was 0.387, the “CVE Average 24 h” value ([3]; 100 μg/ml CDDP) was 0.282 and the “CVE Average 48 h” value ([3]; 100 μg/ml CDDP) was 0.341. The “CVE Average 72 h” value ([3]; 100 μg/ml CDDP) was 0.389, the “CVE Average” value ([3]; Run 1, 24 h, 0.1 μg/ml CDDP) was 0.413 and the “CVE Average” value ([3]; Run 1, 24 h, 1 μg/ml CDDP) was 0.431. The “CVE Average” value ([3]; Run 1, 24 h, 10 μg/ml CDDP) was 0.484, the “CVE Average” value ([3]; Run 1, 24 h, 100 μg/ml CDDP) was 0.307 and the “CVE Average” value ([3]; Run 1, 48 h, 0.1 μg/ml CDDP) was 0.599. The “CVE Average” value ([3]; Run 1, 48 h, 1 μg/ml CDDP) was 0.643, the “CVE Average” value ([3]; Run 1, 48 h, 10 μg/ml CDDP) was 0.632 and the “CVE Average” value ([3]; Run 1, 48 h, 100 μg/ml CDDP) was 0.379. The “CVE Average” value ([3]; Run 1, 72 h, 0.1 μg/ml CDDP) was 0.298, the “CVE Average” value ([3]; Run 1, 72 h, 1 μg/ml CDDP) was 0.23 and the “CVE Average” value ([3]; Run 1, 72 h, 10 μg/ml CDDP) was 0.216. The “CVE Average” value ([3]; Run 1, 72 h, 100 μg/ml CDDP) was 0.244, the “CVE Average” value ([3]; Run 2, 24 h, 0.1 μg/ml CDDP) was 0.388 and the “CVE Average” value ([3]; Run 2, 24 h, 1 μg/ml CDDP) was 0.363. For the same compound, the “CVE Average” value ([3]; Run 2, 24 h, 10 μg/ml CDDP) was 0.358, the “CVE Average” value ([3]; Run 2, 24 h, 100 μg/ml CDDP) was 0.282 and the “CVE Average” value ([3]; Run 2, 48 h, 0.1 μg/ml CDDP) was 0.709. For the same compound, the “CVE Average” value ([3]; Run 2, 48 h, 1 μg/ml CDDP) was 0.517, the “CVE Average” value ([3]; Run 2, 48 h, 10 μg/ml CDDP) was 0.653 and the “CVE Average” value ([3]; Run 2, 48 h, 100 μg/ml CDDP) was 0.341. For the same compound, the “CVE Average” value ([3]; Run 2, 72 h, 0.1 μg/ml CDDP) was 0.457, the “CVE Average” value ([3]; Run 2, 72 h, 1 μg/ml CDDP) was 0.263 and the “CVE Average” value ([3]; Run 2, 72 h, 10 μg/ml CDDP) was 0.387. The “CVE Average” value ([3]; Run 2, 72 h, 100 μg/ml CDDP) was 0.389.
